Assay [1] concerns Escherichia coli. Nature of the assay: Antibacterial activity against Escherichia coli DM4100 harboring deltatolC mutant measured after 18 to 20 hrs in presence of permeabilizing agent PMBN by broth microdilution method. The assay is classed as functional.
The subject of assay [2] is Escherichia coli. Put plainly: Antibacterial activity against Escherichia coli DM4100 harboring deltatolC mutant measured after 18 to 20 hrs by broth microdilution method. The assay is classed as functional. (In general: Dilution methods test growth across graded concentrations, often in twofold steps.)
Another assay addresses Biotin carboxylase (Pseudomonas aeruginosa (strain ATCC 15692 / DSM 22644 / CIP 104116 / JCM14847 / LMG 12228 / 1C / PRS 101 / PAO1), UniProt P37798). Put plainly: Inhibition of recombinant N-terminal His-tagged Pseudomonas aeruginosa PAO1 biotin carboxylase expressed in Escherichia coli Rosetta(DE3) pLysS cells using biotin as substrate by spectroscopic analysis.
The test system of another assay is Pseudomonas aeruginosa. Put plainly: Antibacterial activity against Pseudomonas aeruginosa PAO1 PAM1262 harboring MexAB-OprM/MexCD-OprJ/MexEF-OprN deletion mutant measured after 18 to 20 hrs by broth microdilution method. In kind it is functional.
Assay [3] deals with Escherichia coli. Nature of the assay: Induction of cytological changes in Escherichia coli ATCC 25922 assessed as formation of short chains of three to eight cells at 150 ug/ml measured after 2 hrs by FM 4-64/DAPI staining based microscopic analysis. The assay is classed as functional, organism-based.

Values after ≈ are worked out from the molar mass of the structure shown. Active and inactive are the calls of the source.

Biotin carboxylase, sequence (P37798 whole entry): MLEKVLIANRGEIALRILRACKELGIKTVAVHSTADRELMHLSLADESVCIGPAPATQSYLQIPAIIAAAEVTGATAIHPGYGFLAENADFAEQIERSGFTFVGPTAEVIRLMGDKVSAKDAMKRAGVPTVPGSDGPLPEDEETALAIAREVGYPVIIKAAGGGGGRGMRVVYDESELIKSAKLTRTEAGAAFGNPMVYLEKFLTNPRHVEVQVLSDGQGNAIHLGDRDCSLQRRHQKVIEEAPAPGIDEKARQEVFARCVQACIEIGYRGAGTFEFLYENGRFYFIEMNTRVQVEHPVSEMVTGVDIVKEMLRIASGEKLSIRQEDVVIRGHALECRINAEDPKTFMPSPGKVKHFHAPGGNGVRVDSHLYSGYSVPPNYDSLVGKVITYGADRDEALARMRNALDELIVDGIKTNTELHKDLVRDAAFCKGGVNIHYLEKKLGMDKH

As a reminder, the MIC is the smallest concentration in the dilution series that meets the test's criterion for growth inhibition. The IC50 is the midpoint of a concentration-inhibition curve. As for `NCC1CCN(c2nc3nc(N)ncc3cc2-c2c(Cl)cccc2Cl)CC1`, the minimal inhibitory concentration (MIC) in the assay with Escherichia coli [1] worked out at 0.5 µg/mL; against Escherichia coli [2], 1 µg/mL (≈ 2.48 µM); in the assay on Pseudomonas aeruginosa it was 64 µg/mL (≈ 159 µM). In addition, the IC50 at Biotin carboxylase was 320 nM.

On to `Nc1ncc2cc(-c3c(Cl)cccc3Cl)c(N3C[C@@H]4[C@@H](N)[C@@H]4C3)nc2n1`, for which the MIC came to 0.06 µg/mL in the assay with Escherichia coli [1] and 0.12 µg/mL (≈ 0.31 µM) in the assay with Escherichia coli [2]. In addition, the IC50 on Biotin carboxylase turned out to be 33 nM.

On to `Nc1ncc2cc(-c3ccccc3-c3ccccc3)c(N)nc2n1`, for which the MIC worked out at 0.25 µg/mL with Escherichia coli [1] and 0.5 µg/mL (≈ 1.6 µM) with Escherichia coli [2]. The IC50 on Biotin carboxylase came out at 79 nM.

Regarding `NC(=O)C1CCN(c2nc3nc(N)ncc3cc2-c2c(Cl)cccc2Cl)C1` (centres undefined), the results for the minimal inhibitory concentration (MIC) in the assay on Escherichia coli [1] and in the assay on Escherichia coli [2] were 0.12 µg/mL and 0.5 µg/mL (≈ 1.24 µM), respectively. The IC50 on Biotin carboxylase worked out at 170 nM.

Turning to `Nc1ncc2cc(-c3c(Cl)cccc3Cl)c(N3CCC(CO)C3)nc2n1` (centres undefined), the minimum inhibitory concentration (MIC) in the assay with Escherichia coli [1] came out at 0.12 µg/mL; in the assay on Escherichia coli [2] it was 0.25 µg/mL (≈ 0.641 µM). The half-inhibitory concentration (IC50) on Biotin carboxylase is 140 nM.

With `Nc1ncc2cc(-c3ccccc3-c3cccnc3)c(N)nc2n1`, the figures for the minimum inhibitory concentration (MIC) in the assay with Escherichia coli [1], against Escherichia coli [2] and against Pseudomonas aeruginosa were 0.5 µg/mL, 2 µg/mL (≈ 6.36 µM) and 16 µg/mL (≈ 50.9 µM), respectively. The half-maximal inhibitory concentration (IC50) at Biotin carboxylase was 130 nM.

As to `COc1ncc(-c2cccc(Cl)c2-c2cc3cnc(N)nc3nc2N2C[C@@H]3[C@@H](N)[C@@H]3C2)cc1F`, the MIC in the assay on Escherichia coli [1] turned out to be 0.008 µg/mL; against Escherichia coli [2] it was 0.015 µg/mL (≈ 0.0314 µM); in the assay on Pseudomonas aeruginosa, 2 µg/mL (≈ 4.18 µM). Also, on Biotin carboxylase, the IC50 is ≤ 15 nM.

With `NCC1(O)CCN(c2nc3nc(N)ncc3cc2-c2c(Cl)cccc2Cl)C1` (centres undefined), the MIC in the assay on Escherichia coli [1] was 0.25 µg/mL; against Escherichia coli [2] it was 1 µg/mL (≈ 2.47 µM); in the assay on Pseudomonas aeruginosa it was > 64 µg/mL. Further, the IC50 at Biotin carboxylase was found to be 83 nM.

Take `Nc1ncc2cc(-c3c(Cl)cccc3-c3ccncc3)c(N3C[C@@H]4[C@@H](N)[C@@H]4C3)nc2n1`: the results for the minimum inhibitory concentration (MIC) in the assay on Escherichia coli [1], against Escherichia coli [2] and in the assay with Pseudomonas aeruginosa were 0.015 µg/mL, 0.03 µg/mL (≈ 0.0698 µM) and 2 µg/mL (≈ 4.65 µM), respectively. Moreover, at Biotin carboxylase, the IC50 was ≤ 15 nM.

As for `Cc1ncc(-c2cccc(Cl)c2-c2cc3cnc(N)nc3nc2N2C[C@@H]3[C@@H](N)[C@@H]3C2)s1`, the MIC in the assay on Escherichia coli [1] is 0.004 µg/mL; against Escherichia coli [2], 0.008 µg/mL (≈ 0.0178 µM); in the assay with Pseudomonas aeruginosa, 1 µg/mL (≈ 2.22 µM). Also, at Biotin carboxylase, the half-maximal inhibitory concentration (IC50) is ≤ 15 nM.

Regarding `Nc1ncc2cc(-c3c(Cl)cccc3Cl)c(N)nc2n1`, the MIC in the assay with Escherichia coli [1] was 0.25 µg/mL; against Escherichia coli [2], 0.5 µg/mL (≈ 1.63 µM); in the assay on Pseudomonas aeruginosa, 16 µg/mL (≈ 52.3 µM). Further, at Biotin carboxylase, the IC50 is 320 nM.

As to `NCC1(F)CCN(c2nc3nc(N)ncc3cc2-c2c(Cl)cccc2Cl)C1` (centres undefined), the MIC with Escherichia coli [1] was 1 µg/mL. Besides, the IC50 on Biotin carboxylase amounted to 440 nM.

Regarding `CC(C)COc1cccc(Cl)c1-c1cc2cnc(N)nc2nc1N`, the values for the MIC in the assay with Escherichia coli [1] and against Escherichia coli [2] were ≤ 0.06 µg/mL and 0.25 µg/mL (≈ 0.727 µM), respectively. Moreover, the IC50 at Biotin carboxylase was determined as 93 nM.

As to `Nc1ncc2cc(-c3c(Cl)cccc3Cl)c(N3CCC(N)(CO)C3)nc2n1` (centres undefined), the MIC in the assay with Escherichia coli [1] came to 0.25 µg/mL; with Escherichia coli [2], 1 µg/mL (≈ 2.47 µM). At Biotin carboxylase, the IC50 was 190 nM.

On to `Nc1ncc2cc(-c3c(Cl)cccc3-c3cccnc3)c(N)nc2n1`, for which the MIC with Escherichia coli [1] came out at 0.06 µg/mL; against Escherichia coli [2], 0.12 µg/mL (≈ 0.344 µM); with Pseudomonas aeruginosa, 4 µg/mL (≈ 11.5 µM). The IC50 at Biotin carboxylase stood at 36 nM.

For `NCC1CCN(c2nc3nc(N)ncc3cc2-c2c(Cl)cccc2Cl)C1` (centres undefined), the MIC in the assay with Escherichia coli [1] came out at 0.12 µg/mL; against Escherichia coli [2], 0.5 µg/mL (≈ 1.28 µM). In addition, the concentration for half-maximal inhibition (IC50) on Biotin carboxylase is 64 nM. Besides, the result in the assay on Escherichia coli [3] was Active.

Turning to `COc1ccc(-c2cccc(Cl)c2-c2cc3cnc(N)nc3nc2N)cn1`, the MIC in the assay on Escherichia coli [1] was 0.03 µg/mL; in the assay on Escherichia coli [2] it was 0.06 µg/mL (≈ 0.158 µM). For the same molecule, on Biotin carboxylase, the half-inhibitory concentration (IC50) was determined as 32 nM.

The values are drawn from ChEMBL document CHEMBL4406811, “Optimization and Mechanistic Characterization of Pyridopyrimidine Inhibitors of Bacterial Biotin Carboxylase” (J Med Chem, 2019).
